Measurements taken from patent US7015218B1, “Amide compounds and medicinal use thereof” (Mitsubishi Pharma Corporation, priority 1999, dated 2006).

Tested on: DBA/1J mouse
Experiment: Type II collagen induced arthritis in DBA/1J mouse
Type: in vivo
Procedure: An emulsion was prepared by mixing bovine type II collagen (100–200 μg, purchased from Collagen Gizyutsu Kensyukai) with Freund's complete adjuvant (Sigma) containing dead tubercle bacillus H37Ra was given to 6–7 week-old male DBA/1J mice (Charles River Japan) subcutaneously from the root of the tail for immunization twice at 3 week intervals, thereby developing arthritis. The compound of the present invention or a pharmaceutically acceptable salt thereof was suspended or dissolved in 0.5% hydroxypropylmethylcellulose and orally administered repeatedly at the dose of 0.01–100 mg/kg body weight using an oral sound for 6 weeks from the first immunization. This model was evaluated for the symptoms of arthritis in the four limbs according to the following criteria in 0 to 4 scores. The arthritis score of each mouse was expressed by the total of the scores of the four limbs (maximum:16 points), and when the total score was 1 or more, the onset of arthritis was acknowledged.
The thickness of the four limbs of the mouse was measured with vernier calipers and the total score of the four limbs was used as an index of arthritis. Using a soft X-ray photography (OHMIC co.), the four limbs were X rayed to evaluate the level of destruction of the joints. […]

Cc1c(C(=O)Nc2ccc(C(F)(F)F)cc2)cnn1-c1ccc(F)cc1 [1-(4-fluorophenyl)-N-(4-trifluoromethylphenyl)-5-methylpyrazole-4-carboxamide]
improvement of severity of developed arthritis, swelling of four limbs or joint destruction (repeat oral administration at 10 mg/kg body weight): did not improve | death incidence (repeat oral administration at 30 mg/kg body weight): death incidence was confirmed
